US20080118449A1, “COSMETIC FORMULATIONS OF PICEATANNOL AND RETINOIDS AND METHODS OF USE THEREOF” (priority 2006, published 2008)

Key:
[1] = system: skin of the upper outer arm of 16 human volunteers; experiment: Skin irritant potential, modified human 4-h patch test; format: in vivo
Experimental: The skin irritant potential of the cosmetic compositions of Example 1 and Comparative Example 1 and 2 were determined using a modification of the human 4-h patch test (Basketter D A, et al., Food Chem Toxicol 1997,:35: 845-852), involving application of 0.2 ml of the composition to be tested on a 25 mm plain Hill Top Chamber containing a Webril pad (Hill Top Companies, Cincinatti, Ohio, USA) to the skin of the upper outer arm of 16 human volunteers. Both upper arms of the panelist were used. Patches were applied in a balanced random order.
After 24 hours, the patches were removed and then the test areas were marked with a marking pen. After each lapse of 24, 48 and 72 hours, the test areas were observed and treatment sites were assessed for the presence of irritation using a 4 point scale (Table 2) at 24, 48 and 72 h after patch removal

[2] = system: skin wrinkles on the face of female subjects; experiment: Skin wrinkle improvement by computer aided laser profilometry (Skin Visiometer, silicone replicas); format: in vivo, human; conditions: 9 weeks
Experimental: The effects of the cosmetic compositions of Example 1 and Comparative Example 1 and 2 on skin wrinkle improvement were determined by computer aided laser profilometry.
It involved sixteen female subjects of 30 years and over. The cosmetic compositions of Example 1 and Comparative Examples 1 and 2 were applied on the face (area of 2×2 cm2) of the test subjects, once a day with dose of 0.05 g for 9 weeks. Then, replicas of their skin wrinkles were prepared using white plastic silicon precision moulding compound. The changes in the skin wrinkles of the replicas were detected with Skin Visiometer (SV600 manufactured by Courage+Khazaka electronic GmbH, Germany). Three-dimensional images of the replicas were analyzed with a CCD camera. The skin wrinkle improvement effect was determined as average roughness of the wrinkles (Rz) according to the following numerical formula I:
Rz=(R1+R2+ . . . +Rn−1+Rn)/Number of wrinkles(n) (I)
Wherein, Rn is the roughness of each wrinkle and n is the number of the wrinkles.

[3] = lotion type cosmetic preparation, 0.20 wt% with 0.20 wt% retinyl palmitate
[4] = solution type formulation, 0.2 wt% with 0.2 wt% retinyl palmitate
[5] = emulsion (lotion) type formulation

OC[C@H]1O[C@@H](Oc2cc(O)cc(/C=C/c3ccc(O)c(O)c3)c2)[C@H](O)[C@@H](O)[C@@H]1O (relative stereo) [astringin, trans-(3,5,3′,4′-tetrahydroxystilbene)-3-O-beta-d-glucopyranoside]
effect of addition on irritancy of retinyl palmitate [1, 3]: clearly reduced the irritancy of retinyl palmitate | effect of addition on irritancy of retinyl palmitate [1, 4]: clearly reduced the irritancy of retinyl palmitate | effect on retinoid wrinkle improvement [2, 5]: enhances the effect of retinol on wrinkle improvement | efficiency relative to piceatannol on wrinkle improvement ([2]; emulsion type cosmetic preparations): seems to be m ore efficient than piceatannol | effect on retinoid wrinkle improvement ([2]; solution type formulation): enhances the effect of retinol on wrinkle improvement

Oc1cc(O)cc(/C=C/c2ccc(O)c(O)c2)c1 [piceatannol, trans-3,4,3′,5′-tetrahydroxystilbene]
effect of addition on irritancy of retinyl palmitate [1, 3]: clearly reduced the irritancy of retinyl palmitate | effect of addition on irritancy of retinyl palmitate [1, 4]: clearly reduced the irritancy of retinyl palmitate | effect on retinoid wrinkle improvement [2, 5]: enhances the effect of retinol on wrinkle improvement | effect on retinoid wrinkle improvement ([2]; solution type formulation): enhances the effect of retinol on wrinkle improvement
